The values that follow come from patent US9226916B2, “Pyrrolidine derivatives” (HOFFMANN-LA ROCHE INC., priority 2009, dated 2016).

For one assay, the target named is T1, recombinant human NK3 receptor (Homo sapiens, UniProt P29371).
T1 construct: expressed in transfected cells; host or cells: HEK293 cells, transient expression; membranes
T1 sequence (P29371 1-465): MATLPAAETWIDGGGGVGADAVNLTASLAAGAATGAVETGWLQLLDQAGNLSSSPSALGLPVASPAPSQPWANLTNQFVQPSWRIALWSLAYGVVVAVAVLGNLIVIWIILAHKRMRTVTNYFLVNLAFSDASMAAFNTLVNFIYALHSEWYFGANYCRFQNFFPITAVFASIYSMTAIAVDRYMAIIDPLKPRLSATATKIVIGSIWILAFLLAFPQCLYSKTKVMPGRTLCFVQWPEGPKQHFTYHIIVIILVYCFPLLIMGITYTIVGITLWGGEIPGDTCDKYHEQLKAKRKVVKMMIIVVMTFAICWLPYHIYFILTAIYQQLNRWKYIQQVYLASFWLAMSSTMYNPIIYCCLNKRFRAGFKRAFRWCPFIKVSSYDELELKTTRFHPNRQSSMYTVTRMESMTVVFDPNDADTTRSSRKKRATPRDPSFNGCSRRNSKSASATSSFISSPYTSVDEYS
Nature of the assay: [3H]SR142801 competition binding assay.
Details: not given
For orientation: Ki means the equilibrium dissociation constant of an inhibitor or competing ligand from its target. With `CN(C(=O)Oc1ccc(F)cc1)[C@@H]1CN(C(=O)C2CCN(C(=O)C3CCOC(C)(C)C3)CC2)C[C@H]1c1ccc(Cl)cc1` (stereo partly drawn) [Example 258, {(3S,4R)-4-(4-Chloro-phenyl)-1-[1-(2,2-dimethyl-tetrahydro-pyran-4-carbonyl)-piperidine-4-carbonyl]-pyrrolidin-3-yl}-methyl-carbamic acid 4-fluoro-phenyl ester], the Ki was 2.9 nM.

In the case of `CN(C(=O)Oc1ccc(F)cc1)[C@H]1CN(C(=O)C2CCN(C(=O)C3(C)CC3)CC2)C[C@H]1c1ccc(Cl)c(Cl)c1` (racemic) [Example 40, rac-{(3R,4R)-4-(3,4-Dichloro-phenyl)-1-[1-(1-methyl-cyclopropanecarbonyl)-piperidine-4-carbonyl]-pyrrolidin-3-yl}-methyl-carbamic acid 4-fluoro-phenyl ester], the Ki was 4.2 nM.

Turning to `CCCCOC(=O)N(C)[C@H]1CN(C(=O)C2CCN(C(=O)C3(C)CC3)CC2)C[C@@H]1c1ccc(Cl)cc1` (racemic) [Example 27, rac-{(3R,4S)-4-(4-Chloro-phenyl)-1-[1-(1-methyl-cyclopropanecarbonyl)-piperidine-4-carbonyl]-pyrrolidin-3-yl}-methyl-carbamic acid butyl ester], the Ki is 30.7 nM.

As for `Cc1cc(OC(=O)N(C)[C@@H]2CN(C(=O)C3CCN(C(=O)C4(C)CC4)CC3)C[C@H]2c2ccc(Cl)c(Cl)c2)cc(C)n1` [Example 294, {(3S,4R)-4-(3,4-Dichloro-phenyl)-1-[1-(1-methyl-cyclopropanecarbonyl)-piperidine-4-carbonyl]-pyrrolidin-3-yl}-methyl-carbamic acid 2,6-dimethyl-pyridin-4-yl ester], the inhibitory constant (Ki) was 11.2 nM.

As for `Cc1ccc(N2CCC(C(=O)N3C[C@@H](N(C)C(=O)Oc4ccc(F)cc4)[C@H](c4ccc(Cl)cc4)C3)CC2)nn1` [Example 118, {(3S,4R)-4-(4-Chloro-phenyl)-1-[1-(6-methyl-pyridazin-3-yl)-piperidine-4-carbonyl]-pyrrolidin-3-yl}-methyl-carbamic acid 4-fluoro-phenyl ester], the Ki is 0.3 nM.

Regarding `CN(C(=O)Oc1ccc(F)cc1)[C@@H]1CN(C(=O)C2CCN(c3ccc(Cl)cn3)CC2)C[C@H]1c1ccc(F)c(Cl)c1` [Example 316, [(3S,4R)-4-(3-Chloro-4-fluoro-phenyl)-1-(5′-chloro-3,4,5,6-tetrahydro-2H-[1,2′]bipyridinyl-4-carbonyl)-pyrrolidin-3-yl]-methyl-carbamic acid 4-fluoro-phenyl ester], the inhibitory constant (Ki) was 0.9 nM.

For `Cc1ccc(N2CCC(C(=O)N3C[C@@H](N(C)C(=O)O[C@H]4CC[C@H](C(F)(F)F)CC4)[C@H](c4ccc(Cl)c(Cl)c4)C3)CC2)nn1` [Example 160, {(3S,4R)-4-(3,4-Dichloro-phenyl)-1-[1-(6-methyl-pyridazin-3-yl)-piperidine-4-carbonyl]-pyrrolidin-3-yl}-methyl-carbamic acid 4-trifluoromethyl-cyclohexyl ester], the Ki was found to be 0.5 nM.

In the case of `CN(C(=O)OC1CC(F)(F)C1(F)F)[C@@H]1CN(C(=O)C2CCN(C(=O)C3(C)CC3)CC2)C[C@H]1c1ccc(Cl)cc1` (stereo partly drawn) [Example 175, {(3S,4R)-4-(4-Chloro-phenyl)-1-[1-(1-methyl-cyclopropanecarbonyl)-piperidine-4-carbonyl]-pyrrolidin-3-yl}-methyl-carbamic acid 2,2,3,3-tetrafluorocyclobutyl ester], the Ki worked out at 36 nM.

Consider `CN(C(=O)OCCCC(F)(F)F)[C@@H]1CN(C(=O)C2CCN(c3ccc(C(=O)NC(C)(C)C)cn3)CC2)C[C@H]1c1ccc(Cl)cc1` (racemic) [Example 124, rac-[(3S,4R)-1-(5′-tert-Butylcarbamoyl-3,4,5,6-tetrahydro-2H-[1,2′]bipyridinyl-4-carbonyl)-4-(4-chloro-phenyl)-pyrrolidin-3-yl]-methyl-carbamic acid 4,4,4-trifluoro-butyl ester], for which the Ki turned out to be 40.2 nM.

In the case of `CN(C(=O)Oc1ccc(F)cc1)[C@@H]1CN(C(=O)C2CCN(C(=O)C3(C)COC3)CC2)C[C@H]1c1ccc(Cl)c(Cl)c1` [Example 266, {(3S,4R)-4-(3,4-Dichloro-phenyl)-1-[1-(3-methyl-oxetane-3-carbonyl)-piperidine-4-carbonyl]-pyrrolidin-3-yl}-methyl-carbamic acid 4-fluoro-phenyl ester], the Ki was found to be 0.5 nM.

Take `CN(C(=O)Oc1ccc(F)cc1)[C@H]1CN(C(=O)C2CCN(C(=O)C3(C)CC3)CC2)C[C@@H]1c1ccc(Cl)cc1` [Example 38, {(3R,4S)-4-(4-Chloro-phenyl)-1-[1-(1-methyl-cyclopropanecarbonyl)-piperidine-4-carbonyl]-pyrrolidin-3-yl}-methyl-carbamic acid 4-fluoro-phenyl ester]: the Ki was 42 nM.

On to `CN(C(=O)Oc1ccc(F)cc1)[C@@H]1CN(C(=O)C2CCN(C(=O)C3(C#N)CC3)CC2)C[C@H]1c1ccc(F)cc1` [Example 288, [(3S,4R)-1-[1-(1-Cyano-cyclopropanecarbonyl)-piperidine-4-carbonyl]-4-(4-fluoro-phenyl)-pyrrolidin-3-yl]-methyl-carbamic acid 4-fluoro-phenyl ester], for which the Ki turned out to be 26.6 nM.

Take `CN(C(=O)Oc1ccc(F)cc1)[C@@H]1CN(C(=O)C2CCN(C(=O)C3(C)COC3)CC2)C[C@H]1c1ccc(Cl)cc1` [Example 248, {(3S,4R)-4-(4-Chloro-phenyl)-1-[1-(3-methyl-oxetane-3-carbonyl)-piperidine-4-carbonyl]-pyrrolidin-3-yl}-methyl-carbamic acid 4-fluoro-phenyl ester]: the Ki worked out at 2.8 nM.

As to `CN(C(=O)Oc1ccc(F)cc1)[C@@H]1CN(C(=O)C2CCN(C(=O)C3CCOC(C)(C)C3)CC2)C[C@H]1c1ccc(Cl)c(Cl)c1` (stereo partly drawn) [Example 276, {(3S,4R)-4-(3,4-Dichloro-phenyl)-1-[1-(2,2-dimethyl-tetrahydro-pyran-4-carbonyl)-piperidine-4-carbonyl]-pyrrolidin-3-yl}-methyl-carbamic acid 4-fluoro-phenyl ester], the Ki worked out at 1 nM.

Consider `CN(C(=O)OCC1CCOC1)[C@H]1CN(C(=O)C2CCN(C(=O)C3(C)CC3)CC2)C[C@@H]1c1ccc(Cl)c(Cl)c1` (mixture of isomers) [Example 85, rac-{(3R,4S)-4-(3,4-Dichloro-phenyl)-1-[1-(1-methyl-cyclopropanecarbonyl)-piperidine-4-carbonyl]-pyrrolidin-3-yl}-methyl-carbamic acid (S)-1-(tetrahydro-furan-3-yl)methyl ester and rac-{(3R,4S)-4-(3,4-Dichloro-phenyl)-1-[1-(1-methyl-cyclopropanecarbonyl)-piperidine-4-carbonyl]-pyrrolidin-3-yl}-methyl-carbamic acid (R)-1-(tetrahydro-furan-3-yl)methyl ester], for which the Ki came out at 9.2 nM.

Take `CN(C(=O)Oc1ccc(F)cc1)[C@H]1CN(C(=O)C2CCN(c3nncs3)CC2)C[C@@H]1c1ccc(Cl)c(Cl)c1` (racemic) [Example 78, rac-[(3R,4S)-4-(3,4-Dichloro-phenyl)-1-(1-[1,3,4]thiadiazol-2-yl-piperidine-4-carbonyl)-pyrrolidin-3-yl]-methyl-carbamic acid 4-fluoro-phenyl ester]: the inhibition constant (Ki) stood at 1.5 nM.

Consider `CN(C(=O)Oc1ccc(F)cc1)[C@@H]1CN(C(=O)C2CCN(C(=O)[C@@H]3CC(=O)N3)CC2)C[C@H]1c1ccc(Cl)cc1` [Example 319, {(3S,4R)-4-(4-Chloro-phenyl)-1-[1-((S)-4-oxo-azetidine-2-carbonyl)-piperidine-4-carbonyl]-pyrrolidin-3-yl}-methyl-carbamic acid 4-fluoro-phenyl ester], for which the inhibition constant (Ki) was determined as 10.6 nM.

For `CCCOC(=O)N(C)[C@@H]1CN(C(=O)C2CCN(c3ccc(C#N)cn3)CC2)C[C@H]1c1ccc(Cl)cc1` [Example 138, [(3S,4R)-4-(4-Chloro-phenyl)-1-(5′-cyano-3,4,5,6-tetrahydro-2H-[1,2′]bipyridinyl-4-carbonyl)-pyrrolidin-3-yl]-methyl-carbamic acid propyl ester], the Ki stood at 37.1 nM.

Take `CN(C(=O)Oc1ccc(F)cc1)[C@@H]1CN(C(=O)C2CCN(C(=O)C3(C(F)(F)F)CCC3)CC2)C[C@H]1c1ccc(Cl)c(Cl)c1` [Example 270, {(3S,4R)-4-(3,4-Dichloro-phenyl)-1-[1-(1-trifluoromethyl-cyclobutanecarbonyl)-piperidine-4-carbonyl]-pyrrolidin-3-yl}-methyl-carbamic acid 4-fluoro-phenyl ester]: the Ki was determined as 0.6 nM.

Still in this assay, the particulars now being: hNK-3 receptor affinity; membranes from HEK293 cells transiently expressing recombinant human NK3 receptor; [3H]SR142801; Cheng-Prussoff; read-out: Data Ki.
As for `CC(OC(=O)N(C)[C@@H]1CN(C(=O)C2CCN(c3ccc(C#N)cn3)CC2)C[C@H]1c1ccc(Cl)cc1)C(F)(F)F` (stereo partly drawn) [Example 166, [(3S,4R)-4-(4-Chloro-phenyl)-1-(5′-cyano-3,4,5,6-tetrahydro-2H-[1,2′]bipyridinyl-4-carbonyl)-pyrrolidin-3-yl]-methyl-carbamic acid 2,2,2-trifluoro-1-methyl-ethyl ester], the inhibition constant (Ki) came to 36.4 nM.

Take `CN(C(=O)OCCC1CC1)[C@@H]1CN(C(=O)C2CCN(c3ccc(C#N)cn3)CC2)C[C@H]1c1ccc(Cl)cc1` [Example 219, [(3S,4R)-4-(4-Chloro-phenyl)-1-(5′-cyano-3,4,5,6-tetrahydro-2H-[1,2′]bipyridinyl-4-carbonyl)-pyrrolidin-3-yl]-methyl-carbamic acid 2-cyclopropyl-ethyl ester]: the Ki is 3.6 nM.
